According to PMC12036750, “Screening of SIRT6 inhibitors and activators: A novel activator has an impact on breast cancer cells” (Biomedicine & pharmacotherapy = Biomedecine & …, 2021):
Blank lines part the entries; values can stand above or below the molecule they belong to.

How the values were obtained:
[1] = biological target: T1, SIRT6 (Homo sapiens, UniProt Q8N6T7); experiment: fluorogenic demyristoylase assay (BPS Bioscience), myristoyl peptide substrate; assay type: biochemical
Target sequence in this assay (Q8N6T7 2-355): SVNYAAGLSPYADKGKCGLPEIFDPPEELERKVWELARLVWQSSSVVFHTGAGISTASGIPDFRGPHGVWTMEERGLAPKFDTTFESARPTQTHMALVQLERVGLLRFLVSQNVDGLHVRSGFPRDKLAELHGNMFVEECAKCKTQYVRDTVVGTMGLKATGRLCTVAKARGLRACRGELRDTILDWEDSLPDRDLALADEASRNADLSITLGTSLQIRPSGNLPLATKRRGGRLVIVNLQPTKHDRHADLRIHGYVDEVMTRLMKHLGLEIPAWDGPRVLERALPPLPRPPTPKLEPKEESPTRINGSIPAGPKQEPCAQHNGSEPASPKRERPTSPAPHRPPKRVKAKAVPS

[2] = test system: T2, NC(=O)c1ccc[n+]([C@@H]2O[C@H](COP(=O)([O-])OP(=O)(O)OC[C@H]3O[C@@H](n4cnc5c(N)ncnc54)[C@H](O)[C@@H]3O)[C@@H](O)[C@H]2O)c1; experiment: steady-state Michaelis-Menten kinetics by HPLC (Km, DMSO control); assay type: biochemical, Homo sapiens
T2 construct: GST-tagged recombinant SIRT6

[3] = biological target: T1, SIRT6; experiment: HPLC deacetylation assay, single concentration […]; assay type: biochemical; settings: read-out: % inhibition at 100 μM
Target sequence in this assay (Q8N6T7 whole entry): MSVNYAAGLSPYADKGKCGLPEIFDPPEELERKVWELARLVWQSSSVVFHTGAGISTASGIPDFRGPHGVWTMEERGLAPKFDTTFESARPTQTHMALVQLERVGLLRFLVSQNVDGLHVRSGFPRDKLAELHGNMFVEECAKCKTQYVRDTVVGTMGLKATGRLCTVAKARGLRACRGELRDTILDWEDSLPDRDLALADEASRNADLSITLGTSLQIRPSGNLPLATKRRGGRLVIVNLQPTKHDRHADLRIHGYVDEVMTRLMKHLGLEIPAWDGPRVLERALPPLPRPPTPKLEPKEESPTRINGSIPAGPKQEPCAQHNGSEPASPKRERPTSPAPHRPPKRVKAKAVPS

[4] = biological target: T3, SIRT2 (Homo sapiens, UniProt Q8IXJ6); experiment: fluorogenic deacetylation assay (BioMol KI179 substrate), single concentration […]; assay type: biochemical
T3 sequence (Q8IXJ6 2-389): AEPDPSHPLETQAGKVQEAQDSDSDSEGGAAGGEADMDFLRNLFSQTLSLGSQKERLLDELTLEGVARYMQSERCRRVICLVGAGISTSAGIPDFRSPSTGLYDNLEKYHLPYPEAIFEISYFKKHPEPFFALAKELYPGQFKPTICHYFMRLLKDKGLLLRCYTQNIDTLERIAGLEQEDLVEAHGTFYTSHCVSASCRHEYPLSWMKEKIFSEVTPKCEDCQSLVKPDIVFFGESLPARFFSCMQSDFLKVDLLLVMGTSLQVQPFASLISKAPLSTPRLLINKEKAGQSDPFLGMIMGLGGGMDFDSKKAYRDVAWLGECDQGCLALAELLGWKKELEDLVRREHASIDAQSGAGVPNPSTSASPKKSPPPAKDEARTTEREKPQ

[5] = biological target: T1, SIRT6; experiment: HPLC deacetylation assay with H3K9Ac peptide; dose response and steady-state kinetics (activation); assay type: biochemical
Target sequence in this assay (Q8N6T7 whole entry): as the sequence (Q8N6T7 whole entry) above

Molecule: NC(=O)c1cccnc1 [NAM]
- inhibition at 200 µM [1]: 86 ± 13%

Molecule: SIRT6 (Homo sapiens)
- Km [2]: 1190 ± 450 µM
- kcat [2]: 0.0022 ± 0.0004 s⁻¹
- kcat/Km [2]: 1.9 M⁻¹ s⁻¹

Molecule: O=c1c(O)c(-c2ccc(O)c(O)c2)oc2cc(O)cc(O)c12 [Q, quercetin]
- inhibition at 100 µM [3]: 30%

- inhibition at 200 µM [4]: 53 ± 1.3%
- EC50 [5]: 80 ± 12 µM
Molecule: Cc1c(-c2ccccc2)oc2c(CC(=O)OCC(=O)c3ccc(O)cc3O)cccc2c1=O [compound 1, (2,4-dihydroxy-phenyl)–2-oxoethyl 2-(3-methyl-4-oxo-2-phenyl-4H-chromen-8-yl)acetate]
